Results published in patent US20200316062A1, “COMBINATIONS COMPRISING HISTONE DEACETYLASE INHIBITORS” (Karus Therapeutics Limited, priority 2016, published 2020).
Values belong to the compound of their own block, whether it stands above or below them.

Experiments:
RPMI8226 tumours = experiment: Tumour growth delay study in male SCID mice bearing RPMI8226 tumours; type: in vivo
[1] = Clinical signs and weight in the tumour growth delay study
acetylated tubulin = experiment: Western blot analysis of tumour tissue; type: in vivo, male SCID mice; conditions: tumour tissue removed from treated animals
[2] = test system: PD-L1-expressing HT29 colorectal adenocarcinoma cells, primary stromal fibroblasts and PBMCs; experiment: Tumour microenvironment (TME) model system, study KRS018-01-b (DiscoverX); type: cell-based; conditions: 2.5 to 10 μM; SAg stimulation 48 h; dose-dependent
Description: Test compounds dissolved in DMSO were profiled in a commercially-available tumour microenvironment (TME) model system consisting of PD-L1-expressing HT29 colorectal adenocarcinoma cells, primary stromal fibroblasts and PBMCs in which immune cel responses are suppressed by the presence of the cancer cells. Co-cultured cells were exposed to 2.5, 5, 10, 20 μM of test compound or DMSO as a control and stimulated with SAg for 48 h. The activity profile in the co-culture system was determined using ELISA endpoint assays to detect modulation of protein markers relevant to immune tolerance, inflammation, angiogenesis and matrix remodelling, and sulforhodamine B (SRB) and alamar blue assays to measure the viability of adherent colorectal adenocarcinoma cells and fibroblasts, and PBMCs, respectively.

Human HDAC1 = target: T1, Human HDAC1 (Homo sapiens, UniProt Q13547); experiment: HDAC biochemical assay, acetylated AMC-labeled peptide substrate; conditions: read-out: IC50 (nM) HDAC 1
T1 construct: full length with C-terminal His-tag and C-terminal FLAG-tag; His-tag (C); FLAG-tag (C); made in house

Recombinant human HDAC6 = target: T2, Recombinant human HDAC6 (Homo sapiens, UniProt Q9UBN7); experiment: as above; conditions: read-out: IC50 (nM) HDAC 6
T2 construct: full length, MW=159 kDa; GST (N); made in house; host or cells: Sf9 insect cells (baculovirus)
T2 sequence (Q9UBN7 1-1215): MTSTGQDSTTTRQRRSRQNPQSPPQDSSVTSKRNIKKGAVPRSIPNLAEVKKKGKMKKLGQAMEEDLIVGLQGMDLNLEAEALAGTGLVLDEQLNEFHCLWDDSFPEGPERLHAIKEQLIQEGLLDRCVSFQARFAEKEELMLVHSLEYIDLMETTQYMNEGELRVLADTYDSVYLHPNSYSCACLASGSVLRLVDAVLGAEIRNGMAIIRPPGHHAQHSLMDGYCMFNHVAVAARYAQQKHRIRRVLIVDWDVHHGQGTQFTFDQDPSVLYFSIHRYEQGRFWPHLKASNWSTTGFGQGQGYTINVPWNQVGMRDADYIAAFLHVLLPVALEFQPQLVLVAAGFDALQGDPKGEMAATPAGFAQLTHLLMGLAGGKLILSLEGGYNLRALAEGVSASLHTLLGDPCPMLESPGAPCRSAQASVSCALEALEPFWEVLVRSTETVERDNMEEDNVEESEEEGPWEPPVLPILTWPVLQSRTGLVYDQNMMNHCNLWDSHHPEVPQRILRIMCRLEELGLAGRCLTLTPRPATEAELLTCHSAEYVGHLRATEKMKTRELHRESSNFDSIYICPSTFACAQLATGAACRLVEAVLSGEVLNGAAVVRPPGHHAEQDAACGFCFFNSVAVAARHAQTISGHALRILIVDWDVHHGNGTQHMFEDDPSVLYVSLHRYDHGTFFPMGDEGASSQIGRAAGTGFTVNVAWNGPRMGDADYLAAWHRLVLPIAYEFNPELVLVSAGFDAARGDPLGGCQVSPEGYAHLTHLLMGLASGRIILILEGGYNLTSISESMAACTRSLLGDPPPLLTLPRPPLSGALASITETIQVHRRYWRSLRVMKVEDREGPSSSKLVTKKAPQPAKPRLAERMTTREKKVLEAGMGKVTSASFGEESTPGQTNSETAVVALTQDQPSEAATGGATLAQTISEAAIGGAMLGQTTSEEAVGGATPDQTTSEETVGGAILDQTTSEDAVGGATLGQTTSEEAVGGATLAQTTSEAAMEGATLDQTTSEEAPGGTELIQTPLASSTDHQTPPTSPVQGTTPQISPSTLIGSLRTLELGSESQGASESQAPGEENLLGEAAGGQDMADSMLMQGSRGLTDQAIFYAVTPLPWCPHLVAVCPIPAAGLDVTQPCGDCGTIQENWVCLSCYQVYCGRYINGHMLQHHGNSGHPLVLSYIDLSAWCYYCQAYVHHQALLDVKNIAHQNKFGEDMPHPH

[3] = Group 2: Bortezomib 0.5 mg/kg i.v. twice weekly

T1 sequence (Q13547 whole entry): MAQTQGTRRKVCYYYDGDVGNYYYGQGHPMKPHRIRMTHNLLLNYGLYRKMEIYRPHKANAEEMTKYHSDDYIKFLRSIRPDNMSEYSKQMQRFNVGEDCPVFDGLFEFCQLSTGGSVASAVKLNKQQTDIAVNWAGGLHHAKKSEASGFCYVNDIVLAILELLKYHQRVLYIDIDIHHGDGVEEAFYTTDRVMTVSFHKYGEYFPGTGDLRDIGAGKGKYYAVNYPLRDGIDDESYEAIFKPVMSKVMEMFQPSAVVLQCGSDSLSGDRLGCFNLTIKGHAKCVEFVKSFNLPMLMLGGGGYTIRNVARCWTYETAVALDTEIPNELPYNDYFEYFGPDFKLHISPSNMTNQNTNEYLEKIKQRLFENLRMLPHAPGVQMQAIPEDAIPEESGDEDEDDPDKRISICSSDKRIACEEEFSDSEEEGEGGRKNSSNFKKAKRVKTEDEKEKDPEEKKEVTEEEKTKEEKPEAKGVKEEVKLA

- Group mean at day 26 (weight, clinical signs) [1, 3]: 98.5
SMILES: CC(C)C[C@H](NC(=O)[C@H](Cc1ccccc1)NC(=O)c1cnccn1)B(O)O [Bortezomib]
- % T/C value versus vehicle (RPMI8226 tumours; [3]): 67.8%
- Mean tumour volume, Group mean at day 19 (RPMI8226 tumours; [3]): 984 mm³

- weight change during the study ([1]; bortezomib combinations): no significant weight change
SMILES: O=C(NO)c1ccc(CN(c2cnccn2)c2cnccn2)cc1 [Example GG, 4-{[Bis(pyrazin-2-yl)amino]methyl}-N-hydroxybenzamide]
- expression of acetylated tubulin in tumour tissue (acetylated tubulin): increased expression
- control of tumour (RPMI8226 tumours; Group 4 and 5 (with bortezomib), after 8 days of treatment): significant control of tumour
- levels of secreted granzyme-B, IFNγ, IL-10, IL-17A, IL-2, IL-6 and TNFα [2]: increased

- IC50 (Human HDAC1): 1000 to 10000 nM
- IC50 (Recombinant human HDAC6): ≤ 500 nM
SMILES: CNc1cc(-c2ccnc(N(Cc3ccc(C(=O)NO)cc3)c3cnccn3)c2)ccn1 [Example TT, N-hydroxy-4-({[2′-(methylamino)-[4,4′-bipyridine]-2-yl](pyrazin-2-yl)amino}methyl)benzamide]

- IC50 (Human HDAC1): 1000 to 10000 nM
- IC50 (Recombinant human HDAC6): ≤ 500 nM
SMILES: O=C(NO)c1ccc(CN(c2cnccn2)c2cc(-c3ccncc3)ccn2)cc1 [Example UU, 4-[({[4,4′-bipyridine]-2-yl}(pyrazin-2-yl)amino)methyl]-N-hydroxybenzamide]
